Assay results: US20260098072A1, “METHODS OF STIMULATING APPETITE AND/OR INCREASING BODY WEIGHT USING NON-NATURALLY OCCURRING MELANOCORTIN RECEPTOR ANTAGONIST ANALOGS” (Endevica Bio, Inc., priority 2022, published 2026)
“Also recorded” adds a separate entry of the source. Positions of bridges follow the written chain, without caps; N, C: chain ends. Non-standard residues stand in square brackets, D forms with d. Residues, ends and D or L forms follow the SMILES beside them. No end group written: not given here. d2Nal = N[C@H](Cc1ccc2ccccc2c1)C(=O)O; Nle = CCCC[C@H](N)C(=O)O

Legend:
[1] = system: LPS model of cachexia; assay: LPS-induced cachexia assay in rats; format: in vivo, rat; conditions: for peripheral (IP) anti-cachexia activity / blood-brain barrier transport: peripheral administration
Method: The LPS model uses rats were maintained on a 12 h light/dark schedule with ad libitum access to food and water. Animals were handled daily for a minimum of three consecutive days to decrease non-specific handling stress. On the day of the experiment, individually housed animals received intraperitoneal injections of LPS dissolved in 0.5% low-endotoxin BSA, 0.9% saline or 0.5% BSA in 0.9% saline alone, and were returned to their home cage. The drug or control was administered (ICV, IP, or PO, depending on the type of study) 1-hour after LPS injection.
In the experiments performed in accordance with the present technology, a series of melanocortin receptor antagonist peptides were examined in a bacterial endotoxin inducing cachexia assay. For this assay, a rat is challenged with a single peripheral injection of lipopolysaccharide (LPS). LPS is a heat-stable lipo-polysaccharide, the major component of the outer membrane (capsule) of gram negative bacteria. In non-capsulated strains, it appears as a cell surface protein. LPS produces a strong immune response, including secretion of the proinflammatory cytokines Tumor Necrosis Factor α (TNFα) and interleukin-1 (IL-1). Proinflammatory cytokines are known factors that induce cachexia.
Rats are maintained on a 12-hour light/dark cycle. Animals are handled daily for a minimum of 5 consecutive days to acclimate them to the handling required for the experiment. […] On the day of the experiment, individually housed animals receive intraperitoneal (IP) injections of LPS dissolved in 0.5% low-endotoxin BSA, 0.9% saline or 0.5% BSA in 0.9% saline alone, and returned in their home cage. Melanocortin receptor antagonist peptides were administered (IP or by gavage, depending on the type of study) one hour after the LPS injection. The extent of cachexia is measured by the reduction in food intake, measured every two hours. The cachexia typically lasts only a single day. However, rats lose up to 5% of their body weight during a 12-hour light cycle, making up this loss plus food needed for normal growth during the 12-hour dark cycle. Thus, failure to eat appropriately during a single dark cycle is determinable from the animal's weight and any changes thereof.
A series of melanocortin receptor antagonist peptides were examined in a bacterial toxin inducing cachexia assay. In this assay, a rat was challenged with a single peripheral injection of lipopolysaccharide (LPS), a bacterial toxin that rapidly induces acute cachexia. The extent of cachexia was measured as a reduction in food intake, measured every two hours. The cachexia typically lasts only a single day.

[2] = system: urethane-anesthetized rats; assay: Cardiovascular effects (MAP, heart rate, ECG) in urethane-anesthetized rats
Method: These studies were performed in urethane-anesthetized rats, since anesthesia is required for six-lead ECG monitoring. […] Initial selection of doses was guided by FDA exploratory IND studies with a recommendation for at least a 100-fold excess of the human dose.

[3] = system: Lewis sarcoma rat model; assay: Lewis sarcoma rat model of cancer cachexia; format: in vivo; conditions: low and high dose
Method: This sarcoma is an aggressive form of cancer that produces significant cachexia. Popp et al., Cancer 49 (6): 1212-1220 (1982). In the protocol, “treatment” began 8-days after tumor implantation, with a significant decrease in food intake from baseline. Body composition was determined by NMR prior to tumor implantation, and on the final day of the experiment after tumor resection, by ECHO MRI (NMR). Tumor implantation produces cachexia on or about the sixth day. The non-naturally occurring melanocortin analog or saline was administered after day 8 and continued through day 12.

[4] = target: human melanocortin 3 receptor (MC3R) (human, UniProt P41968 1-323); assay: cell-based or functional assay
[5] = target: human melanocortin 4 receptor (MC4R) (human, UniProt P32245 1-332); assay: cell-based or functional assay
Sequence of human melanocortin 4 receptor (MC4R) (P32245 whole entry): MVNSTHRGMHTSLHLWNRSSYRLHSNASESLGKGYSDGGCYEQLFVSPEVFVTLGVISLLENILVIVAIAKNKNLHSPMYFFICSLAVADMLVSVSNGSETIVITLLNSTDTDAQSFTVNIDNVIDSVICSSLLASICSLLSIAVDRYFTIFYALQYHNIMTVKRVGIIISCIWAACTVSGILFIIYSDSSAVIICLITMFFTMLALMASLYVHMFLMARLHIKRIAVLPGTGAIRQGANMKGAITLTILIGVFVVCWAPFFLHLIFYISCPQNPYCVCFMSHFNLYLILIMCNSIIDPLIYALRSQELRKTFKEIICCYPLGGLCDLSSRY

Sequence of human melanocortin 3 receptor (MC3R) (P41968 whole entry): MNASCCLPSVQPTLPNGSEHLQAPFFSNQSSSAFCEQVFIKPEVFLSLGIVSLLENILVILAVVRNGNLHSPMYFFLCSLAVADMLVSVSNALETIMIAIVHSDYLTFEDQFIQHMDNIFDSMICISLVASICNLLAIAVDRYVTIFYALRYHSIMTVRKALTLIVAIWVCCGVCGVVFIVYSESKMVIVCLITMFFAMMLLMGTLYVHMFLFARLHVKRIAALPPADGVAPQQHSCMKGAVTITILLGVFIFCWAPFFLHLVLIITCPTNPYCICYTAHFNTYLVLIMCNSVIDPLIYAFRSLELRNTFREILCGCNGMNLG

## Ac-Nle-c[Asp-Pro-DNal(2′)-Arg-Trp-Lys]-β^3Pro-β^3Val-NH2 [TCMCB06]
[1]; 0.2 mg/kg intraperitoneally
  food intake and body weight, 24-hours: ate less food than the other non-naturally occurring melanocortin analogs, and had no weight gain
[1]
  anti-cachectic activity after ICV administration: molar activity equivalent to TCMCB02
[1]; ICV-administration
  molar activity relative to TCMCB02: 10 fold

## Ac-Nle-c[Asp-Pro-DNal(2′)-Arg-Trp-Lys]-DVal-DPro (Ac-[Nle]DP[d2Nal]RWK[dV][dP]; lactam 2-7) [TCMCB07A]
[1]
  peripheral (IP) anti-cachexia activity / blood-brain barrier transport: equivalent stimulation of feeding

## Ac-Nle-c[Asp-Pro-DNal(2′)-Arg-Trp-Lys]-β^2Val-β^3Pro-NH2 [TCMCB08]
[1]; gavage (intra-gastric)
  oral activity / gastrointestinal transport: no gastrointestinal transport; also recorded: not as much oral activity as TCMCB07
[1]
  peripheral (IP) anti-cachexia activity / blood-brain barrier transport: has peripheral activity; also recorded: good blood-brain barrier transport

## Ac-Nle-c[D-Asp-Pro-DNal(2′)-Arg-Trp-DLys]-DPro-DVal-NH2 (Ac-[Nle][dD]P[d2Nal]RW[dK][dP][dV]-NH2; lactam 2-7) [TCMCB04]
[1]
  anti-cachectic activity after ICV administration: superior anti-cachectic activity compared to the parent compound
  peripheral (IP) anti-cachexia activity / blood-brain barrier transport: No difference was observed between the non-naturally occurring melanocortin analog and saline; also recorded: eliminated blood brain barrier transport

## O=C(N[C@H](Cc1ccc(Cl)cc1)C(=O)N1CCC(Cn2cncn2)(C2CCCCC2)CC1)[C@H]1Cc2ccccc2CN1 [THIQ, N-[(3R)-1,2,3,4-tetrahydroisoquinolinium-3-ylcarbonyl]-(1R)-1-(4-chlorobenzyl)-2-[4-cyclohexyl-4-(1H-1,2,4-triazol-1-ylmethyl)piperidin-1-yl]-2-oxoethylamine]
[2]; 300 nmol
  Duration: 19 ± 4 min
  Peak Heart Rate Response (BPM): 81 ± 09 BPM
  Peak MAP Response (Δ mm Hg): 22 ± 11 mm Hg

## CCCC[C@H](NC(C)=O)C(=O)N[C@H]1CC(=O)NCCCC[C@@H](C(=O)O)NC(=O)[C@H](Cc2c[nH]c3ccccc23)NC(=O)[C@H](CCCN=C(N)N)NC(=O)[C@@H](Cc2ccccc2)NC(=O)[C@H](Cc2cnc[nH]2)NC1=O [Bremelanotide (PT-141), Ac-Nle-c[Asp-His-DPhe-Arg-Trp-Lys]-COOH]
[2]; 250 nmol
  Duration: 140 ± 53 min
  Peak Heart Rate Response (BPM): 44 ± 6 BPM
  Peak MAP Response (Δ mm Hg): 32 ± 6 mm Hg
[2]; 900 nmol/kg IV, baseline MAP 80 mmHg
  MAP after lethal dose: 140 mmHg
[2]; IV
  lethal dose: 900 nmol/kg
[2]; IV 600 nmol/kg
  ECG tracing (lead 2): inverted P-wave

## Ac-Nle-c[Asp-Pro-dNal(2′)-Arg-Trp-Lys]-dVal-dPro-NH2 (Ac-[Nle]DP[d2Nal]RWK[dV][dP]-NH2; lactam 2-7) [TCMCB07]
[3]
  gastrocnemius mass: preservation of gastrocnemius mass

## Ac-Nle-c[Asp-His-DNal(2′)-Arg-Trp-Lys]-DPro-DVal-NH2 (Ac-[Nle]DH[d2Nal]RWK[dP][dV]-NH2; lactam 2-7; SMILES CCCC[C@H](NC(C)=O)C(=O)N[C@H]1CC(=O)NCCCC[C@@H](C(=O)N2CCC[C@@H]2C(=O)N[C@@H](C(N)=O)C(C)C)NC(=O)[C@H](Cc2c[nH]c3ccccc23)NC(=O)[C@H](CCCNC(=N)N)NC(=O)[C@@H](Cc2ccc3ccccc3c2)NC(=O)[C@H](Cc2c[nH]cn2)NC1=O) [TCMCB03]
[1]
  anti-cachectic activity after ICV administration: enhanced anti-cachexia; also recorded: superior anti-cachexia activity following ICV administration
  peripheral (IP) anti-cachexia activity / blood-brain barrier transport: failed to cross the blood brain barrier; also recorded: did not possess as good peripheral (intraperitoneal/IP administration) anti-cachexia activity

## Ac-Nle-c[Asp-Pro-DNal(2′)-Arg-Trp-Lys]-β^3Pro-β^3Pro-NH2 [TCMCB10]
[1]
  anti-cachectic activity after ICV administration: maintaining direct inhibitory effects
  peripheral (IP) anti-cachexia activity / blood-brain barrier transport: showed no peripheral activity

## CCCC[C@H](NC(=O)[C@H](Cc1ccc(O)cc1)NC(=O)[C@H](CO)NC(C)=O)C(=O)N[C@@H](CCC(=O)O)C(=O)N[C@@H](Cc1c[nH]cn1)C(=O)N[C@H](Cc1ccccc1)C(=O)N[C@@H](CCCNC(=N)N)C(=O)N[C@@H](Cc1c[nH]c2ccccc12)C(=O)NCC(=O)N[C@@H](CCCCN)C(=O)N1CCC[C@H]1C(=O)N[C@H](C(N)=O)C(C)C [MT-I, Ac-Ser-Tyr-Nle-Glu-His-DPhe-Arg-Trp-Gly-Lys-Pro-Val-NH2] (Ac-SY[Nle]EH[dF]RWGKPV-NH2)
[2]; 250 nmol
  Duration: 0 min
  Peak Heart Rate Response (BPM): 0/0 BPM
  Peak MAP Response (Δ mm Hg): 0/0 mm Hg

## Ac-Nle-c[Asp-Pro-DNal(2′)-Arg-Trp-Lys]-β^3Val-β^3Pro-NH2 [TCMCB09]
[1]
  peripheral (IP) anti-cachexia activity / blood-brain barrier transport: inactive peripherally

## LPFFRWVP [B4]
[4]
  Max Activation %: 7.81%
[5]
  Max Activation %: 16.1%

B1: B1 (peptide)
peptide: Ac-[Nle]DPFFRWK[dV][dP]-NH2
modifications: lactam 2-8
SMILES: CCCC[C@H](NC(C)=O)C(=O)N[C@H]1CC(=O)NCCCC[C@@H](C(=O)N[C@@H](C(=O)N2CCC[C@@H]2C(N)=O)C(C)C)NC(=O)[C@H](Cc2c[nH]c3ccccc23)NC(=O)[C@H](CCCNC(=N)N)NC(=O)[C@H](Cc2ccccc2)NC(=O)[C@H](Cc2ccccc2)NC(=O)[C@@H]2CCCN2C1=O
[4]
  Max Activation %: 6.86%
[5]
  Max Activation %: 12.7%

B2: B2 (peptide)
peptide: Ac-LDPFFRWKVP-NH2
modifications: lactam 2-8
SMILES: CC(=O)N[C@@H](CC(C)C)C(=O)N[C@H]1CC(=O)NCCCC[C@@H](C(=O)N[C@H](C(=O)N2CCC[C@H]2C(N)=O)C(C)C)NC(=O)[C@H](Cc2c[nH]c3ccccc23)NC(=O)[C@H](CCCNC(=N)N)NC(=O)[C@H](Cc2ccccc2)NC(=O)[C@H](Cc2ccccc2)NC(=O)[C@@H]2CCCN2C1=O
[4]
  Max Activation %: 10.3%
[5]
  Max Activation %: 35.5%

## Ac-[Nle]DP[d2Nal]RWK[dV][dP]-NH2 (lactam 2-7) [TCMCB07]
[4]
  IC50 (cAMP by HTRF, antagonist dose-response): 43.4 nM
  Max Activation %: 112%
[5]
  IC50 (cAMP by HTRF, antagonist dose-response): 26.9 nM
  Max Activation %: 118%

## LDPFFRWKVP (lactam 2-8) [B3]
[4]
  Max Activation %: 0.83%
[5]
  Max Activation %: 4.41%

B3: TCMCB02 (peptide)
peptide: Ac-[Nle]DP[d2Nal]RWK[dP][dV]-NH2
modifications: lactam 2-7
SMILES: CCCC[C@H](NC(C)=O)C(=O)N[C@H]1CC(=O)NCCCC[C@@H](C(=O)N2CCC[C@@H]2C(=O)N[C@@H](C(N)=O)C(C)C)NC(=O)[C@H](Cc2c[nH]c3ccccc23)NC(=O)[C@H](CCCNC(=N)N)NC(=O)[C@@H](Cc2ccc3ccccc3c2)NC(=O)[C@@H]2CCCN2C1=O
[4]
  IC50 (cAMP by HTRF, antagonist dose-response): 1360 nM
  Max Activation %: 101%
[5]
  IC50 (cAMP by HTRF, antagonist dose-response): 57.1 nM
  Max Activation %: 120%
